Source: patent publication US20160304957A1, “TREATMENT AND MODULATION OF GENE EXPRESSION AND SKIN AGING” (DSM NUTRITIONAL PRODUCTS LTD., priority 2006, published 2016)

What was measured:
HaCaT cells = test system: HaCaT cells
Description: HaCaT cells were obtained from Prof. Fusenig, German Cancer Research Centre, Heidelberg. To gather cells more representative for the upper epidermal layer, we cloned the original cells by endpoint dilution. […] Cytokeratins were detected using anti-cytokeratin clones AE1/AE3 (Boehringer Mannheim, Germany) and anti-cytokeratin 1,10 antibody (Biogenesis Ltd., Poole, UK), respectively. […] Cells were propagated in FAD medium (DMEM/HAM's F12 3:1, Invitrogen); 5% NuSerum IV culture supplement and Miton™ 1:1000 (both Becton Dickinson, Bedford, Mass., USA). On day 0 of the experiment, cells were seeded at 2×10^5 cells per 60 mm dish. Cells were counted using a Coulter Multisizer (IG Instrumenten Gesellschaft, Zurich, Switzerland). […] On days 1 and 2, the media were replaced with fresh β-carotene-containing FAD medium without phenol red; 2% NuSerum; penicillin/streptomycin.
β-Carotene stock solutions and β-carotene-containing media were prepared under reduced light conditions. All-E-β-carotene was synthesized by DSM Nutritional Products (Kaiseraugst, Switzerland). β-carotene was dissolved in tetrahydrofurane (THF containing 0.025% butyl hydroxytoluol; Fluka Chemie A G, Buchs, Switzerland). Immediately before preparing the β-carotene stock solution, THF was purified over a basic aluminum oxide grade 1 (Camag, Muttenz, Switzerland) column. The n-carotene stock solution was prepared fresh for each experiment, and stored under argon at −20° C. until use. To prepare β-carotene-containing medium, the β-carotene stock solution was first diluted 1:1 with ethanol. This β-carotene/solvent mixture was then added to the cell culture medium to give a final concentration of 0.5, 1.5, or 3 μM β-carotene. β-carotene-containing medium was prepared fresh for the daily medium changes. The solvent concentration in the medium was kept constant at 0.5% for all treatment conditions.
All extraction and analytical procedures were carried out in brown glass, and under reduced light conditions. Acetonitrile, tert-butylmethylether, acetone and ethanol p. a. were from E. Merck K G (Darmstadt, Germany). Ammonium acetate p.a., butylated hydroxy toluene p.a., tetrahydrofuran p.a., triethylamine p.a., were from Fluka Chemie A G (Buchs, Switzerland). HPLC grade solvents for stock solutions, dilutions, and sample solvent mixtures were additionally purified over basic aluminum oxide grade 1 (Camag, Muttenz, Switzerland). To determine the β-carotene content of cells, the cell layer was washed 5 times with PBS/2% BSA. The cells were detached by trypsin/EDTA 0.05/0.02% and centrifuged at 10,000×g for 1 minute Cell pellets were lysed with acetone containing 0.025% BHT (v/w), vortex-mixed and dried in a speed-vac. The dried residue was extracted with ethanol/tBME/THF, 9:5:1, containing 0.025% of BHT (v/w) by vigorous vortex-mixing for one minute, and centrifugation for 3 minutes at 10,000×g. An aliquot of the clear supernatant was injected into the HPLC system. Cell culture medium was directly extracted with the solvent mixture described above, and the extract was treated as described for the cell pellets.
The HPLC system consisted of a 520 pump, a 565 autosampler cooled at 6° C., a 540+ diode array detector, a SDU 2003 solvent degasser unit and the Chroma 3000 data analysis system from Bio-Tek Instruments (Basel, Switzerland). A Vydac 218TP54 column (250×4.5 mm i.d., 300 angstrom pore wide) from the Separation Group (Hesperia, USA) was used for separation.

photosensitization = settings: EPP patients, 180 mg/d; cited from earlier work
caspase-3 = assay: Caspase-3 activity, CaspACE Assay System; type: cell-based, human
Procedure: Cells were supplemented with β-carotene for 2 days and prior to UVA irradiation (270 kJ/m^2). Caspase-3 activity was determined at 5 hours after irradiation. Values are mean±standard error of an experiment with four replicates.
Caspase-3 activity 5 hours after UVA irradiation was quantified in five separate experiments using the CaspACE™ Assay System (Promega/Catalys, Switzerland).

[1] = β-Carotene concentration in culture medium during incubation; type: physicochemical; settings: 24 hours of incubation, irrespective of the presence of cells
Procedure: β-carotene-containing medium was prepared as follows. Fresh all-E-β-carotene (DSM Nutritional Products, Kaiseraugst, Switzerland) stock solution in THF (containing 0.025% BHT; Fluka Chemie A G, Switzerland) was diluted 1:2 with ethanol and added to cell culture medium to a final concentration of 1.5 μM β-carotene. The solvent concentration in the medium was 0.5% for all treatments. β-carotene-containing medium was prepared fresh for the daily medium changes.

skin carcinogenesis = settings: supplementation, rodents; cited from earlier work
TIMP-1 = assay: ELISA of TIMP-1 release into cell culture supernatant of HaCaT cells; type: cell-based, human; settings: β-carotene, with or without UVA
Procedure: HaCaT cells were supplemented with 0.5, 1.5, or 3 μM β-carotene for 2 days prior to UVA (270 kJ/m^2) irradiation. MMP-1 and TIMP-1 secretion 24 hours after irradiation was analyzed by ELISA. Each condition was represented by three replicates in the experiment. Values are means±standard error.
Release of MMP-1, and TIMP-1 into cell culture supernatant was determined by ELISA at 24 hours after irradiation. MMP-1 and TIMP-1 release was measured using MMP-1 and TIMP ELISA from CALBIOCHEM (San Diego, Calif., USA). The ELISAs were performed according to the manufacturer's instructions.

**Q.** With `CC1=C(/C=C/C(C)=C/C=C/C(C)=C/C=C/C=C(C)/C=C/C=C(C)/C=C/C2=C(C)CCCC2(C)C)C(C)(C)CCC1` [β-carotene, All-E-β-carotene] as the compound, how does the Retinol cellular content (HaCaT cells) read?
**A.** <LOD

**Q.** What about the “Retinyl Palmitate cellular content” value (HaCaT cells) of the same compound?
**A.** <LOD

**Q.** What about the “cellular β-carotene content relative to 72 hours” value (HaCaT cells) of the same compound?
**A.** about half

**Q.** What about the “retinol or retinyl esters formed from β-carotene” value (HaCaT cells) of the same compound?
**A.** do not produce detectable amounts

**Q.** And the “time of peak cellular β-carotene concentration” value (HaCaT cells)?
**A.** 72 h

**Q.** And the symptoms of photosensitization (photosensitization)?
**A.** alleviated the symptoms of photosensitization

**Q.** And the caspase-3 activation (caspase-3; β-carotene alone, unirradiated)?
**A.** Neither UVA nor β-carotene alone activated caspase-3

**Q.** And the caspase-3 activity (caspase-3; β-carotene with UVA 270 kJ/m^2, 5 hours after irradiation)?
**A.** induce caspase-3 activity in a dose-dependent manner

**Q.** What about the “β-carotene concentration in medium remaining” value [1] of the same compound?
**A.** approximately 50%

**Q.** What about the skin carcinogenesis (skin carcinogenesis) of the same compound?
**A.** reduced skin carcinogenesis

**Q.** And the TIMP-1 protein level (TIMP-1)?
**A.** not significantly influenced
